Experiments:
TLR4 = test: TLR multiplex sensor, EIS film resistance before/after exposure (Example 5), TLR4 sensor; format: binding; details: exposure 20 minutes
Description: For each multiplex TLR sensor, 5 separate gold electrodes were used for binding TLR 1 to 5. The 5 modified electrodes/sensors were exposed to the analyte solution and evaluated one by one using potentiostats and electrochemical cells.
The preparation of each TLR biosensor was evaluated using EIS. It is understood that cyclic voltammetry as well as electrochemical impedance microscopy can also be used for monitoring the modification. […] Ethanolamine was then applied to deactivate unreacted LPA. Due to dissociation of unspecific absorbed TLR, the Rct dropped slightly. Experimental curves were evaluated using a model to obtain the Rct values, which can be seen at FIG. 9. Measurements from at least triplicated samples prepared were used to obtain statistic information.
The TLR1 sensor was exposed to an E. coli K12 whole-cell buffer solution for 20 minutes. The sensor was then removed, washed thoroughly and characterized in the electrochemical cell measuring the Rct again. The difference in Rct before and after exposure is the response triggered by the target. The same protocol was carried out for all remaining TLRs (TLRs 2-5) to obtain one set of pattern for E. coli K12 (FIGS. 10b to 10e). Multiple sets were investigated for statistical relevance. […]

rmTLR1 = target: T1, rmTLR1 (Mus musculus, UniProt Q9EPQ1); test: Label-free TLR1 sensor, EIS detection of Pam3CSK4 (Example 7); format: binding; details: for delta Rct %: 20 minutes; for Rct: before immersion 10250
T1 construct: purchased R&D Systems RDS1476TR050
T1 sequence (Q9EPQ1 26-795): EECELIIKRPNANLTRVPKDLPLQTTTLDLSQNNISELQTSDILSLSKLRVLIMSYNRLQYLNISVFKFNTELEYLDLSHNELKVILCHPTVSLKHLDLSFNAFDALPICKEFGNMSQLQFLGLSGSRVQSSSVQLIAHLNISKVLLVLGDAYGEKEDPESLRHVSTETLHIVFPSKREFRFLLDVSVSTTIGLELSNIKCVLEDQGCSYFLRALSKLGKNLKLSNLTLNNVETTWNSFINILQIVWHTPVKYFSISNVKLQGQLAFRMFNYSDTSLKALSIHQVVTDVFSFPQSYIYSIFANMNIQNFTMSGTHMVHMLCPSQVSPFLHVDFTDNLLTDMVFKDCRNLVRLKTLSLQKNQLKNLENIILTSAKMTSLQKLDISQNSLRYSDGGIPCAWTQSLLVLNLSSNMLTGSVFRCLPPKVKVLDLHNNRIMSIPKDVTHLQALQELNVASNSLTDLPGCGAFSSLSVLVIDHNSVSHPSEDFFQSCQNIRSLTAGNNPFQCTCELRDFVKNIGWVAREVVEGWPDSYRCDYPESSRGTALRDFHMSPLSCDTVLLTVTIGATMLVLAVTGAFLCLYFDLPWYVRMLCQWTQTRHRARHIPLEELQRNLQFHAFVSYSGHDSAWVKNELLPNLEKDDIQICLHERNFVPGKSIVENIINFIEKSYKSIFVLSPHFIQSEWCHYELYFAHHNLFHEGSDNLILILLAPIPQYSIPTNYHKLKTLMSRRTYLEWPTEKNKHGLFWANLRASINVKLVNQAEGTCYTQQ
Description: TLR sensors were prepared using fresh, cleaned gold electrodes. The electrodes were immersed in a 2 mM 1-lipoic acid n-hydroxysuccinimide ester (LPA) ethanol solution for 48 hours at 277 K. The electrodes were then rinsed thoroughly using absolute ethanol and blown dry under nitrogen before incubation in 200 μg/ml rmTLR1, 200 μg/ml rmTLR2 and 200 μg/ml ‘rmTLR1 and 2’ mixture for 72 hours at 277 K. The rmTLR1 and 2 mixture was prepared by mixing 200 μg/ml rmTLR1 and 200 μg/ml rmTLR2 with a volume ratio of 1:1. The final concentration of each component was 100 μg/ml and the total concentration of the combined TLR protein content was 200 μg/ml. Following the supplier's recommended conditions, all TLRs were prepared in PBS buffer (pH˜7.4). The electrodes were rinsed with an excess volume of Milli-Q water and blown dry under nitrogen. An ethanolamine-tris buffer solution was prepared by dissolving 1.2 g of ethanolamine and 0.121 g of Tris base in 20 mL of water, the pH was adjusted to 8.4 using hydrochloric acid. TLR-immobilized electrodes were incubated in the ethanolamine solution for one hour at room temperature in order to block any remaining unreacted LPA amine sites. The fabricated sensors with immobilized, standalone rmTLR3, rmTLR4/MD-2 and rmTLR5, used for the selectivity test, were prepared using the same protocol described above.
Pam3CSK4 was dissolved in 10 mM HEPES aqueous buffer at pH˜7.4. The blocked rmTLR biosensors were incubated in Pam3CSK4 at various concentrations for 20 minutes. The electrodes were always washed thoroughly with same HEPES buffer (pH˜7.4) after the incubation.
All electrochemical measurements were carried out using a cell with a three-electrode configuration in an enclosed Faraday cage. CV and EIS measurements were completed using a CHI-660b potentiostat (CH Instruments, Austin, Tex.). rmTLR-modified gold electrodes and platinum (Pt) wire were used as the working electrode and the counter electrode, respectively. A reference electrode (Ag/AgCl/3.0M KCl) and a salt bridge, filled with an agar and 1M KNO3 aqueous solution, were inserted to minimize the diffusion of chloride ions into the electrolyte solution. The agar solution was prepared by dissolving 2.0 grams of agar and 10.1 g KNOB in 100 mL of water. The CV and EIS electrolyte was made in a 10 mM HEPES aqueous buffer at pH˜7.4, which consisted of a 5 mM K4Fe(CN)6/5 mM K3Fe(CN)6 as a redox couple with 1M of NaClO4 as the supporting electrolyte. For consistency, the electrochemical measurements were carried out with open-circuit potentials. EIS experiments were conducted in the frequency range of 100,000 to 0.1 Hz with an amplitude of 5 mV. The experimental EIS curves were evaluated to determine the film resistance using ZSimpWin 2.0 software.

[1] = system: Toll-like receptor expressing cells; details: cited from earlier work

## Pam3CSK4
TLR4
  delta Rct %: limited responses
rmTLR1
  limit of detection: 10 µM
rmTLR1; 5 μM
  delta Rct %: not significant
rmTLR1; 25 μM
  delta Rct %: 59±7%
rmTLR1; 50 μM
  delta Rct %: 98±10%
rmTLR1; after 5 μM
  Rct: 10780 Ω · cm^2
rmTLR1; after 10 μM
  Rct: 12760 Ω · cm^2
rmTLR1; after 25 μM
  Rct: 16840 Ω · cm^2
rmTLR1; after 50 μM
  Rct: 21010 Ω · cm^2
[1]
  detection (lowest level previously reported): 2 µg/mL
